# According to patent US20220087996A1, “Histone acetylase p300 inhibitor and use thereof” (HINOVA PHARMACEUTICALS INC., priority 2018, published 2022):
# Where two headings read alike, the source gives them in different places.
# Tests used:
# [1] = tested on: CWR22RV1 cells; assay: Inhibition of proliferation of CWR22RV1 cells (CCK-8); format: cell-based, human; settings: 6 days culture
# Method in brief: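 Proliferation read-out was CCK-8 absorbance at 450 nm after 2.5 h, following 6-day culture with compound. Each well held 1500 CWR22RV1 cells; the 3-fold, 9-point series started at a final 10 μM in 0.1% DMSO. Dose-response-inhibition fit gave the IC50.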
# [2] = target: T1, histone acetylase p300 (Homo sapiens, UniProt Q09472); assay: Inhibitory activity on histone acetylase p300 (radioisotope FlashPlate); format: biochemical; settings: enzyme 0.2 nM, peptide substrate 600 nM, [3H]-Ac-CoA 250 nM; read-out: IC50 against P300
# T1 construct: purchased BPS
# Description: Using the radioisotope FlashPlate technology, the half inhibitory concentration (IC50) of the compound according to the present invention was detected against histone acetylase p300 (purchased from BPS). […] Under the catalysis of histone acetylase p300, [3H]—Ac group in the isotope-labeled [3H]-Ac-CoA was transferred to the biotinylated histone polypeptide substrate (purchased from GL Biochem Ltd.), and then the biotinylated histone peptide substrate bound to the streptavidin on the FlashPlate board, so that the isotope was close enough to the FlashPlate board. Thus, the radiation energy of isotope could convert the scintillation fluid coated on the FlashPlate board into photons, that was able to be detected. Detailed procedures were as follows:
# • 1× reaction buffer: 50 mM Tris-HCl, pH 7.5; 0.01% Tween-20 • Reaction stop solution: 750 μM Ac-CoA solution
# Each test compound was dissolved into 10 mM with 100% DMSO, and then each compound was diluted to the desired concentration in Echo 384-well plate. […] 200 nl of 100% DMSO was transferred into the well as the negative control.
# p300 was added to 1× reaction buffer to form a 2× enzyme solution (the final concentration of enzyme being 0.2 nM).
# The peptide substrate and [3H]-Ac-CoA were added to the 1-fold reaction buffer, to form a 2-fold substrate solution (the final concentration of the substrate being 600 nM and 250 nM, respectively).
# 10 μl of 2-fold enzyme solution was added to the wells of 384-well reaction plate. […] The plate was centrifuged at 1000 rpm for 1 min and incubated at room temperature for 15 min.
# 10 μl of 2-fold substrate solution was added to each well of 384-well reaction plate. The plate was centrifuged at 1000 rpm for 1 min, and then reacted at 25° C. for 60 min.
# 10 μl of reaction stop solution was added to each well of 384-well reaction plate to stop the reaction. 25 μL solution was collected from each well of the test plate and transferred to Flashplate, that was placed at room temperature for 1 h. Then, Flashplate plate was washed three times with 0.1% Tween-20 solution.
# 4) Reading Data with MicroBeta 2
# The data were copied from Microbeta 2. […] The maximum value is the conversion rate of the control DMSO, and the minimum value is the conversion rate of the control without enzyme activity.
# The data were imported into Graph Pad Prism5, and the formula “log(inhibitor) vs. response−Variable slope” was used to perform curve fitting, to obtain the half inhibitory concentration (IC50).
# [3] = Homo sapiens, CWR22Rv1, 144 h, read-out: IC50 against CWR22RV1 cells
# [4] = Homo sapiens, CWR22Rv1, 144 h, read-out: IC50 against CWR22RV1 cells (text)
# [5] = read-out: IC50 against CWR22RV1 cells
# T1 sequence (Q09472 whole entry): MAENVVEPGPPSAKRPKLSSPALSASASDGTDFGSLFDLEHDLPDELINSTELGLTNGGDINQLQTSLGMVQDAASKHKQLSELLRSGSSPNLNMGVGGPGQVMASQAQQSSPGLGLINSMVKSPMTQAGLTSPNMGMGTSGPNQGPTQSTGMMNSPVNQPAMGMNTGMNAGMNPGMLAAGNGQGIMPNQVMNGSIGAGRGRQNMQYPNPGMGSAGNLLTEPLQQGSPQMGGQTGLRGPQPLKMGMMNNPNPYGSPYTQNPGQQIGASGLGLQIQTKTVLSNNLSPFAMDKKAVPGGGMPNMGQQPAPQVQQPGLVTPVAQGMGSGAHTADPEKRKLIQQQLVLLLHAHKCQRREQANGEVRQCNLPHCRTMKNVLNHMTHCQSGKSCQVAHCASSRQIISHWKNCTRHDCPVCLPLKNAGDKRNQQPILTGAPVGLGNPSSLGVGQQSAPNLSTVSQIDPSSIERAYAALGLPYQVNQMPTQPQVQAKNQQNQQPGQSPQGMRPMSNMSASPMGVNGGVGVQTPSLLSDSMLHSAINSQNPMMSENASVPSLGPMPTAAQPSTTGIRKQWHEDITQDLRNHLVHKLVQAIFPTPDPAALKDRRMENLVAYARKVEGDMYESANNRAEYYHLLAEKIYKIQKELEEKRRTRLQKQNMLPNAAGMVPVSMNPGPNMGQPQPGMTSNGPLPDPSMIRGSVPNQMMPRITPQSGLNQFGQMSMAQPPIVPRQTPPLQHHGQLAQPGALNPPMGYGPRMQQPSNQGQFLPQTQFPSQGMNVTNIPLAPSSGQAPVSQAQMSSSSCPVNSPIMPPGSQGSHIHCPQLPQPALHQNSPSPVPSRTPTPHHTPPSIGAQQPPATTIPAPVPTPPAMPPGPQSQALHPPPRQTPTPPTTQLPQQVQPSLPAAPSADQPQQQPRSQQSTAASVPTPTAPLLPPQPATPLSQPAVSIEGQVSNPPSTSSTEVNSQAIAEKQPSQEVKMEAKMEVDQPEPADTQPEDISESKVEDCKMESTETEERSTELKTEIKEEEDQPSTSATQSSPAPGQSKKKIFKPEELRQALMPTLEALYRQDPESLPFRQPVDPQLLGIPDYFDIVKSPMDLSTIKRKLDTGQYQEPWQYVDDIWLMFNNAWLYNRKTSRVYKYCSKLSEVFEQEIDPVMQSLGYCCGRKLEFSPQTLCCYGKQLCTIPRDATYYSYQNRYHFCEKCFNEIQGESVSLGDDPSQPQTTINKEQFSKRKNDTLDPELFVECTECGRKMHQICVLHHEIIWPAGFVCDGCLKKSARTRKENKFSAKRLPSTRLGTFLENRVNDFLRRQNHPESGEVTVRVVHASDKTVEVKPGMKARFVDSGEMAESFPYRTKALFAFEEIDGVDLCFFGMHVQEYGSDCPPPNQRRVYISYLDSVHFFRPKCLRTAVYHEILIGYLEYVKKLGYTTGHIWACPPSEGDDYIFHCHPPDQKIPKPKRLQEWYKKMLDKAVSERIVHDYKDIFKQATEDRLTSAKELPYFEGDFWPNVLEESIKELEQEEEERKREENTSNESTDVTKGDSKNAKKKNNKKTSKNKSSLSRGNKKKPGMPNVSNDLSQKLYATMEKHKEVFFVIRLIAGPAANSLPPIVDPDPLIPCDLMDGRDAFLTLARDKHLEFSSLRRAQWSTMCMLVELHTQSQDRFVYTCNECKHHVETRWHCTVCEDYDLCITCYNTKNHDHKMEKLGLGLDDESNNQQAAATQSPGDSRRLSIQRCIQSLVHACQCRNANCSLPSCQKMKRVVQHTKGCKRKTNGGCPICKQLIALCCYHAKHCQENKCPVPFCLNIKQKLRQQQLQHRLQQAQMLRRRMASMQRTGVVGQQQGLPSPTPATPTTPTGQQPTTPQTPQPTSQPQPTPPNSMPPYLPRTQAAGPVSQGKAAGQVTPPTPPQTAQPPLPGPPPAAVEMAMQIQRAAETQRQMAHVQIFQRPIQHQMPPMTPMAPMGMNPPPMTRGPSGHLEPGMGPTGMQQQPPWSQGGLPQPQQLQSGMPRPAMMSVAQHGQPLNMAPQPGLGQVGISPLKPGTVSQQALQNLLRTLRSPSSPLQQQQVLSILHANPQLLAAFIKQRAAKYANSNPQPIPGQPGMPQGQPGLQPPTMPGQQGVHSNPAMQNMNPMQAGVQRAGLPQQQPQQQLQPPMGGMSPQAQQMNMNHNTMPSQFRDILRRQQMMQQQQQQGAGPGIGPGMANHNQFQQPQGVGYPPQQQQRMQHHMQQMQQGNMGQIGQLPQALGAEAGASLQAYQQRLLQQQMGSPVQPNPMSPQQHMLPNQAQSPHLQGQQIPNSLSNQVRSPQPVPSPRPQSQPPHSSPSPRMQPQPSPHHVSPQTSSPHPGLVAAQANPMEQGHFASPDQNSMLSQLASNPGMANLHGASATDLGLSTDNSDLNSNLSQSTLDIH
SMILES,IC50 [2] [nM],"IC50 [1, 3] [nM]","IC50 [1, 4] [nM]","IC50 [1, 5] [nM]"
"CNC(=O)Nc1ccc2c(c1)CC[C@@]21OC(=O)N(CC(=O)N2C(C3CC3)CC[C@H]2c2ccc(F)cc2)C1=O (stereo in doubt) [Example 380, 1-((R)-3′-(2-((2S,5S)-2-cyclopropyl-5-(4-fluorophenyl)pyrrolidin-1-yl)-2-oxoethyl)-2′,4′-dioxo-2,3-dihydrospiro[indene-1,5′-oxazolidine]-5-yl)-3-methylurea]",5.1,≤ 500,≤ 500,
CNC(=O)Nc1ccc2c(c1)CC[C@@]21OC(=O)N(CC(=O)N2[C@@H](C(C)C)CC[C@H]2c2ccc(F)cc2)C1=O [Compound 48],4.5,,,
"CNC(=O)Nc1ccc2c(c1)CC[C@@]21OC(=O)N(CC(=O)N2[C@H](C)CC[C@@H]2c2ccc(F)cc2)C1=O [Example 17, 1-((R)-3′-(2-((2R,5R)-2-(4-fluorophenyl)-5-methylpyrrolidin-1-yl)-2-oxoethyl)-2′,4′-dioxo-2,3-dihydrospiro[indene-1,5′-oxazolidine]-5-yl)-3-methylurea]",3600,> 2000,,
CNC(=O)Nc1ccc2c(c1)CC[C@@]21OC(=O)N(CC(=O)N2C(c3ccc(F)cc3C)CC[C@H]2C)C1=O (some centres unmarked) [Example 21],17,,,≤ 500
"CC[C@H]1CC[C@@H](c2ccc(F)cc2)N1C(=O)CN1C(=O)O[C@@]2(CCc3cc(NC(=O)NC)ccc32)C1=O [Example 43, 1-((R)-3′-(2-((2S,5S)-2-ethyl-5-(4-fluorophenyl)pyrrolidin-1-yl)-2-oxoethyl)-2′,4′-dioxo-2,3-dihydrospiro[indene-1,5′-oxazolidine]-5-yl)-3-methylurea]",3.1,≤ 500,≤ 500,
"CNC(=O)Nc1ccc2c(c1)C1(CC1)CC21OC(=O)N(CC(=O)N(Cc2ccc(F)cc2)[C@@H](C)C(F)(F)F)C1=O (stereo partly drawn) [Example 98, 2-(5-(3-methylureido)-2′,4′-dioxo-2,3-dihydrospiro[cyclopropane-indene-1,5′-oxazole]-3′-yl)-N-(4-fluorobenzyl)-N—((S)-1,1,1-trifluoropropan-2-yl)acetamide]",26,500 to 2000,,
"CC(=O)Nc1ccc2c(c1)CC[C@@]21OC(=O)N(CC(=O)N2[C@@H](C)CC[C@H]2c2ccc(F)cc2)C1=O [Example 114, N—((R)-3′-(2-((2S,5S)-2-(4-fluorophenyl)-5-methylpyrrolidin-1-yl)-2-oxoethyl)-2′,4′-dioxo-2,3-dihydrospiro[indene-1,5′-oxazolidine]-5-yl)acetamide]",26,500 to 2000,,
"COC(=O)Nc1ccc2c(c1)CC[C@@]21OC(=O)N(CC(=O)N2[C@@H](C)CC[C@H]2c2ccc(F)cc2)C1=O [Example 115, ((R)-3′-(2-((2S,5S)-2-(4-fluorophenyl)-5-methylpyrrolidin-1-yl)-2-oxoethyl)-2′,4′-dioxo-2,3-dihydrospiro[indene-1,5′-oxazolidine]-5-yl)carbamic acid methyl ester]",64,> 2000,,
"CNC(=O)Nc1ccc2c(c1)CC[C@@]21OC(=O)N(CC(=O)N2[C@@H](C)CC[C@H]2C2CCC(F)(F)CC2)C1=O [Example 209, 1-((R)-3′-(2-((2S,5S)-2-(4,4-difluorocyclohexyl)-5-methylpyrrolidin-1-yl)-2-oxoethyl)-2′,4′-dioxo-2,3-dihydrospiro[indene-1,5′-oxazolidine]-5-yl)-3-methylurea]",11,≤ 500,≤ 500,
"CNC(=O)Nc1ccc2c(c1)CC[C@@]21OC(=O)N(CC(=O)N2CCC[C@H]2c2ccccc2)C1=O [Example 225, 1-((R)-2′,4′-dioxo-3′-(2-oxo-2-((S)-2-phenylpyrrolidin-1-yl)ethyl)-2,3-dihydrospiro[indene-1,5′-oxazolidine]-5-yl)-3-methylurea]",67,500 to 2000,,
"CNC(=O)Nc1ccc2c(c1)CC[C@@]21OC(=O)N(CC(=O)N2CCCC2c2ccccc2OC)C1=O (stereo partly drawn) [Example 319, 1-((1R)-3′-(2-(2-(2-methoxyphenyl)pyrrolidin-1-yl)-2-oxoethyl)-2′,4′-dioxo-2,3-dihydrospiro[indene-1,5′-oxazolidine]-5-yl)-3-methylurea]",84,> 2000,,
"CNC(=O)Nc1ccc2c(c1)CC[C@@]21OC(=O)N(CC(=O)N2C(C)CCC2c2ccc(OC)cc2)C1=O (stereo partly drawn) [Example 350, 1-((1R)-3′-(2-(2-(4-methoxyphenyl)-5-methylpyrrolidin-1-yl)-2-oxoethyl)-2′,4′-dioxo-2,3-dihydrospiro[indene-1,5′-oxazolidine]-5-yl)-3-methylurea]",33,500 to 2000,,
"CNC(=O)Nc1ccc2c(c1)CC[C@@]21OC(=O)N(CC(=O)N2C(c3ccc(F)cc3F)CC[C@@H]2C)C1=O (stereo partly drawn) [Example 370, 1-((R)-3′-(2-((5S)-2-(2,4-difluorophenyl)-5-methylpyrrolidin-1-yl)-2-oxoethyl)-2′,4′-dioxo-2,3-dihydrospiro[indene-1,5′-oxazolidine]-5-yl)-3-methylurea]",103,> 2000,,

# More lines, in order of falling IC50 [2], values ahead:
IC50 [2] [nM],SMILES,"IC50 [1, 3] [nM]","IC50 [1, 4] [nM]","IC50 [1, 5] [nM]"
15,"CNC(=O)Nc1ccc2c(c1)CC[C@@]21OC(=O)N(CC(=O)N2[C@@H](COC)CC[C@H]2c2ccc(F)cc2)C1=O [Example 362, 1-(3′-(2-((2S,5R)-2-(4-fluorophenyl)-5-(methoxymethyl)pyrrolidin-1-yl)-2-oxoethyl)-2′,4′-dioxo-2,3-dihydrospiro[indene-1,5′-oxazolidine]-5-yl)-3-methylurea]",≤ 500,≤ 500,
13,"CNC(=O)Nc1ccc2c(c1)CC[C@@]21OC(=O)N(CC(=O)N2[C@@H](C)CC[C@H]2c2ccc(F)c(Cl)c2)C1=O [Example 213, 1-((R)-3′-(2-((2S,5S)-2-(3-chloro-4-fluorophenyl)-5-methylpyrrolidin-1-yl)-2-oxoethyl)-2′,4′-dioxo-2,3-dihydrospiro[indene-1,5′-oxazolidine]-5-yl)-3-methylurea]",,≤ 500,≤ 500
9.3,"CCC1CC[C@@H](C2CCC(F)(F)CC2)N1C(=O)CN1C(=O)O[C@@]2(CCc3cc(NC(=O)NC)ccc32)C1=O (stereo in doubt) [Example 212, 1-((R)-3′-(2-((2S,5R)-2-(4,4-difluorocyclohexyl)-5-ethyl-pyrrolidin-1-yl)-2-oxoethyl)-2′,4′-dioxo-2,3-dihydrospiro[indene-1,5′-oxazolidine]-5-yl)-3-methylurea]",≤ 500,≤ 500,
7.5,"CNC(=O)Nc1ccc2c(c1)CC[C@@]21OC(=O)N(CC(=O)N2C(C)CCC2C2CCCCC2)C1=O (stereo partly drawn) [Example 96, 1-((1R)-3′-(2-(2-cyclohexyl-5-methylpyrrolidin-1-yl)-2-oxoethyl)-2′,4′-dioxo-2,3-dihydrospiro[indene-1,5′-oxazolidine]-5-yl)-3-methylurea]",≤ 500,,
5.7,"CNC(=O)Nc1ccc2c(c1)CC[C@@]21OC(=O)N(CC(=O)N2[C@@H](C)CC[C@H]2c2ccc(F)cc2)C1=O [Example 14, 1-((R)-3′-(2-((2S,5S)-2-(4-fluorophenyl)-5-methylpyrrolidin-1-yl)-2-oxoethyl)-2′,4′-dioxo2,3-dihydrospiro[indene-1,5′-oxazolidine]-5-yl)-3-methylurea]",≤ 500,≤ 500,
5.5,"CNC(=O)Nc1ccc2c(c1)CC[C@@]21OC(=O)N(CC(=O)N2[C@@H](C)CC[C@H]2c2ccc(F)cc2F)C1=O [Example 217, 1-((R)-3′-(2-((2S,5S)-2-(2,4-difluorophenyl)-5-methylpyrrolidin-1-yl)-2-oxoethyl)-2′,4′-dioxo-2,3-dihydrospiro[indene-1,5′-oxazolidine]-5-yl)-3-methylurea]",≤ 500,≤ 500,
3.1,"C[C@H]1CC[C@@H](c2ccc(F)cc2)N1C(=O)CN1C(=O)O[C@@]2(CCc3cc(NC(=O)NC4CC4)ccc32)C1=O [Example 371, 1-((R)-3′-(2-((2S,5S)-2-(4-fluorophenyl)-5-methylpyrrolidin-1-yl)-2-oxoethyl)-2′,4′dioxo-2,3-dihydrospiro[indene-1,5-oxazolidine]-5-yl)-3-cyclopropylurea]",500 to 2000,,
